In patent US9522197B2, “Nanoparticles comprising a cyclodextrin and a biologically active molecule and uses thereof” (INNOUP FARMA, S.L., priority 2007, dated 2016):

Test: Quantification of cyclodextrin associated with the nanoparticles (HPLC-ELSD)
Assay type: physicochemical
Conditions: PVM/MA 100 mg, cyclodextrin 25 mg, incubation 30 min; n=12
Procedure: The analysis was conducted in a 1100 series LC model chromatograph (Agilent, Waldbornn, Germany) and the data was analyzed in a Hewlett-Packard computer by means of the Chem-Station G2171 program (Agueros et al., J. Pharm. and Biomed. Anal., 39 (2005) 495-502).
For the sample analysis, the supernatants obtained after the purification process of the nanoparticles were diluted up to 10 ml with purified water. After adding the internal standard (PEG 6000), 1 ml aliquots of supernatant were taken as a sample. The samples were analyzed using a Zorbax Eclipse XDB-Phenyl column (Agilent 150 mm×2.1 mm) and a mixture of water/acetonitrile in a gradient (see Table 1) as a mobile phase at a flow of 0.25 ml/min.
The conditions of the detector (ELSD) were optimized until achieving the maximum sensitivity according to the gradient used in the mobile phase (Nebulizer Temperature: 115° C.; Nitrogen Flow: 3.2 ml/min). The chromatographic separation of the different cyclodextrins, of PVM/MA and of the internal standard (PEG 6000) was carried out in less than 15 minutes. The retention times were:
In the case of the quantification of aminated cyclodextrin [e.g. 6-monodeoxy-6-monoamino-β-cyclodextrin (NH-β-CD)] associated to the nanoparticles, a variant of the above described method was used to prevent the overlapping of the peaks of the cyclodextrin and the polymer. Therefore, the samples were analyzed using an NH2-Zorbax column (Agilent 4.6×150 mm, 5 μm), heated to 40° C. and a mixture of methanol/water (80/20 v/v) as a mobile phase at a flow of 1 ml/min. The conditions of the detector (ELSD) were the following: Nebulizer Temperature: 71° C. and Nitrogen Flow: 1.9 ml/min. The chromatographic separation of 6-monodeoxy-6-monoamino-β-cyclodextrin was carried out in less than 7 minutes. The retention time was 3.8±0.07 minutes.
Finally, the amount of cyclodextrin (CD) associated to the nanoparticles was calculated as the difference between the amount of CD initially added and the amount of CD quantified in the supernatants.

Row | Molecule | Associated CD
1 | OC[C@H]1O[C@@H]2O[C@H]3[C@H](O)[C@@H](O)[C@@H](O[C@H]4[C@H](O)[C@@H](O)[C@@H](O[C@H]5[C@H](O)[C@@H](O)[C@@H](O[C@H]6[C@H](O)[C@@H](O)[C@@H](O[C@H]7[C@H](O)[C@@H](O)[C@@H](O[C@H]8[C@H](O)[C@@H](O)[C@@H](O[C@H]1[C@H](O)[C@H]2O)O[C@@H]8CO)O[C@@H]7CO)O[C@@H]6CO)O[C@@H]5CO)O[C@@H]4CO)O[C@@H]3CO [β-CD, β-cyclodextrin] | about 90 μg/mg
2 | NC[C@H]1O[C@@H]2O[C@H]3[C@H](O)[C@@H](O)[C@@H](O[C@H]4[C@H](O)[C@@H](O)[C@@H](O[C@H]5[C@H](O)[C@@H](O)[C@@H](O[C@H]6[C@H](O)[C@@H](O)[C@@H](O[C@H]7[C@H](O)[C@@H](O)[C@@H](O[C@H]8[C@H](O)[C@@H](O)[C@@H](O[C@H]1[C@H](O)[C@H]2O)O[C@@H]8CO)O[C@@H]7CO)O[C@@H]6CO)O[C@@H]5CO)O[C@@H]4CO)O[C@@H]3CO [NH-β-CD, 6-monodeoxy-6-monoamino-β-cyclodextrin] | ~70 µg/mg
3 | 2-hydroxypropyl-β-cyclodextrin [OH-β-CD] | ~70 µg/mg
